For this assay, the target named is T1, condensate formation by G3BP1 and RNA (Homo sapiens, UniProt Q13283).
T1 construct: made in house; host or cells: E. coli BL21 (DE3)
Description: In vitro LLPS, two-component system (G3BP1 and RNA). Format: biochemical. Particulars: 20 μM G3BP1, 100 ng RNA, up to 166 μM compound. The procedure: LLPS assays were performed in 30 μl total volume at 25°C at pH 7.4 in buffer containing 37 mM Tris, pH 7.5, 116 mM NaCl, 0.33% NP-40, 2.6% glycerol, 0.5 mM DTT with 20 ng/μl total cellular RNA from U2OS cells and 1.425 μM G3BP1, 0.075 μM FLAG-GFP-G3BP1, and 1.5 μM caprin 1. Reactions were initiated by adding G3BP1/caprin 1 protein mix to cellular RNA, followed by 3 min of shaking at 450 rpm and then incubation for 70 min in the dark. For condensates formed with G3BP1 and RNA, 20 μM purified G3BP1 and 100 ng of total cellular RNA from HEK293T cells were added to a buffer consisting of 100 mM NaCl and 16.7 mM HEPES (pH 7.5) in the presence of the indicated dose of G3Ib or vehicle control.

T1 sequence (Q13283 whole entry): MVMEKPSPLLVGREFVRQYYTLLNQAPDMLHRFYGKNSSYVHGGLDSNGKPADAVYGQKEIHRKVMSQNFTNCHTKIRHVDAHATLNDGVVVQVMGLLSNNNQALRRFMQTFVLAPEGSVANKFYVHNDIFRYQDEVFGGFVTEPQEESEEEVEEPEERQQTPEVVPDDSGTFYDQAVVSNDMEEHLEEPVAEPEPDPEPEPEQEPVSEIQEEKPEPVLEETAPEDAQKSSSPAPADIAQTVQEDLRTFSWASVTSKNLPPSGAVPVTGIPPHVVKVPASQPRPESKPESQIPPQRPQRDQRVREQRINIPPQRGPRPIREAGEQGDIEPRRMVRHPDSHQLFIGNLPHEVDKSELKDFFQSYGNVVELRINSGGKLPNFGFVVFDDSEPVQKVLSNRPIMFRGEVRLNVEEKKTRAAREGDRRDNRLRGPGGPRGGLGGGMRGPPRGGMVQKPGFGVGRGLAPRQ

With `CC(NC(=O)C(NC(=O)C(NC(=O)CCC(C)(C)C)C(C)(C)O)C(C)c1ccccc1)C(=O)N1CCCC1c1ccccc1` (stereo not shown) [G3Ib], the “condensate formation by G3BP1 and RNA” value is “unaffected”.

The record behind these values is article PMC10824102, “Identification of small molecule inhibitors of G3BP-driven stress granule formation” (The Journal of Cell Biology, 2024).
